Measurements: patent US11427548B2 (Arvinas Operations, Inc., priority 2015, dated 2022)
Read-outs that look alike come from different tables or passages of the source.

Biological target: T1, Androgen Receptor (Homo sapiens, UniProt P10275)
T1 construct: endogenous in cells; host or cells: VCaP cells
T1 sequence (P10275 1-920): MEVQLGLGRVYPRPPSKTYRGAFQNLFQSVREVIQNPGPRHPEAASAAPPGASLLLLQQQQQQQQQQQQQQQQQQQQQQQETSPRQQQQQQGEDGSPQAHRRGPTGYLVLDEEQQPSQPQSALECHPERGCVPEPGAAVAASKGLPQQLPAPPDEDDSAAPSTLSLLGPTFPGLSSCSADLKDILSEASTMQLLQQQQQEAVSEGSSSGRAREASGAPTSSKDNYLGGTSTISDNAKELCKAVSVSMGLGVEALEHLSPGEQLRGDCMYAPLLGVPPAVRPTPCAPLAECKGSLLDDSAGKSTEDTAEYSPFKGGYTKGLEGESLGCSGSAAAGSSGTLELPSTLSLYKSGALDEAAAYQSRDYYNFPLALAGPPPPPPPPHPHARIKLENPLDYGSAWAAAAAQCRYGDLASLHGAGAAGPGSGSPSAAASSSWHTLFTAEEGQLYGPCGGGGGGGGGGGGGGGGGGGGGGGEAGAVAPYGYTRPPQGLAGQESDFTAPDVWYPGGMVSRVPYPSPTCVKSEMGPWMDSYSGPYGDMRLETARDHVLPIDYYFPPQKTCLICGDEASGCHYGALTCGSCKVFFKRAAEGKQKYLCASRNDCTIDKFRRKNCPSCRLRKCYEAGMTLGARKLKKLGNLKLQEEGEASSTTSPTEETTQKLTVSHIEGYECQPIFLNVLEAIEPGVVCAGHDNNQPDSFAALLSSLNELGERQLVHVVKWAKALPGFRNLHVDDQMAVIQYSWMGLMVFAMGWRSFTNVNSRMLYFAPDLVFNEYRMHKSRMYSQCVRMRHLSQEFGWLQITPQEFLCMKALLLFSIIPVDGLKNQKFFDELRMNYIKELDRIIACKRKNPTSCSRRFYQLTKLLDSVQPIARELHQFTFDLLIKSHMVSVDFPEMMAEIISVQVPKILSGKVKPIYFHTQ
Assay: Androgen Receptor ELISA assay (PathScan AR ELISA) in VCaP cells: AR degradation, Dmax and DC50
Type: cell-based
Summary of the method: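 After 24 h exposure of VCaP cells (charcoal-stripped serum, 0.1 nM R1881 agonist, 0.1% DMSO) to seven half-log compound concentrations, residual AR in lysates was measured by PathScan ELISA (TMB absorbance, 450 nm). Cells were plated at 30,000/well and grown at least 3 days beforehand.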

[1] = read-out: VCaP DC50; VCaP cells; Table 36
[2] = VCaP cells; Table 36; read-out: VCaP DC50
[3] = VCaP, VCaP cells; Table 36; read-out: VCaP Dmax (%)
[4] = read-out: VCaP DC50; concentration that caused 50% Androgen Receptor degradation, VCaP cells (Table 32)

Row | DC50 [2] [nM] | Dmax [3] [%] | SMILES | Dmax (VCaP, read-out: VCaP Dmax (%)) [%] | also measured
1 |  |  | Cc1ncsc1-c1ccc(CNC(=O)[C@H]2C[C@@H](O)CN2C(=O)[C@@H](NC(=O)[C@H](C)Oc2ccc(OCCOc3ccc(N4C(=S)N(c5ccc(C#N)c(C(F)(F)F)c5)C(=O)C4(C)C)cc3)cc2)C(C)(C)C)cc1 [Example 382] | 26 to 50 | DC50 (read-out: VCaP DC50; VCaP cells; Table 34): < 50 nM
2 |  |  | Cc1ncsc1-c1ccc([C@H](C)NC(=O)[C@@H]2C[C@@H](O)CN2C(=O)[C@@H](NC(=O)CN2CCOCCN(CCOc3ccc(N4C(=S)N(c5ccc(C#N)c(C(F)(F)F)c5)C(=O)C4(C)C)cc3)CCOCC2)C(C)(C)C)cc1 [Example 643, (2S,4R)-1-((S)-2-(2-(10-(2-(4-(3-(4-cyano-3-(trifluoromethyl)phenyl)-5,5-dimethyl-4-oxo-2-thioxoimidazolidin-1-yl)phenoxy)ethyl)-1,7-dioxa-4,10-diazacyclododecan-4-yl)acetamido)-3,3-dimethylbutanoyl)-4-hydroxy-N-((S)-1-(4-(4-methylthiazol-5-yl)phenyl)ethyl)pyrrolidine-2-carboxamide] | < 25 | DC50 [1]: > 501 nM
3 | > 501 | < 25 | Cc1ncsc1-c1ccc([C@H](C)NC(=O)[C@@H]2C[C@@H](O)CN2C(=O)[C@H](c2cc(CCCN3CCN(c4ccc(C(=O)N[C@H]5C(C)(C)[C@H](Oc6ccc(C#N)c(Cl)c6)C5(C)C)cn4)CC3)no2)C(C)C)cc1 [Example 818, N-((1r,3r)-3-(3-chloro-4-cyanophenoxy)-2,2,4,4-tetramethylcyclobutyl)-6-(4-(3-(5-((S)-1-((2S, 4R)-4-hydroxy-2-(((S)-1-(4-(4-methylthiazol-5-yl)phenyl)ethyl)carbamoyl)pyrrolidin-1-yl)-3-methyl-1-oxobutan-2-yl)isoxazol-3-yl)propyl)piperazin-1-yl) nicotinamide] |  | 
4 |  |  | Cc1nccn1-c1ccc(C(C)NC(=O)C2CC(O)CN2C(=O)C(C(C)C)n2cc(-c3ccc(OC4CCN(c5ccc(N6C(=S)N(c7ccc(C#N)c(C(F)(F)F)c7)C(=O)C6(C)C)cn5)CC4)nc3)cn2)cc1 (centres unmarked) [Example 631, 1-(2-(4-(6-((1-(5-(3-(4-cyano-3-(trifluoromethyl)phenyl)-5,5-dimethyl-4-oxo-2-thioxoimidazolidin-1-yl)pyridin-2-yl)piperidin-4-yl)oxy)pyridin-3-yl)-1H-pyrazol-1-yl)-3-methylbutanoyl)-4-hydroxy-N-(1-(4-(2-methyl-1H-imidazol-1-yl)phenyl)ethyl)pyrrolidine-2-carboxamide] | < 25 | DC50 [1]: > 501 nM
5 | < 50 | 51 to 70 | Cc1ncsc1-c1ccc(CNC(=O)[C@@H]2C[C@@H](O)CN2C(=O)[C@H](C(C)C)N2Cc3ccccc3C2=O)c(N2CCN(CCCc3ccc(C(=O)N[C@H]4C(C)(C)[C@H](Oc5ccc(C#N)c(Cl)c5)C4(C)C)cc3)CC2)c1 [Example 752, (2S,4R)-N-(2-(4-(3-(4-(((1r,3r)-3-(3-chloro-4-cyanophenoxy)-2,2,4,4-tetramethylcyclobutyl)carbamoyl)phenyl)propyl)piperazin-1-yl)-4-(4-methylthiazol-5-yl)benzyl)-4-hydroxy-1-((S)-3-methyl-2-(1-oxoisoindolin-2-yl)butanoyl)pyrrolidine-2-carboxamide] |  | 
6 |  |  | COc1cc(-c2ccc(N3C(=S)N(c4ccc(C#N)c(C(F)(F)F)c4)C(=O)C3(C)C)cc2)ccc1OCCCCOCC(=O)N[C@H](C(=O)N1C[C@H](O)C[C@H]1C(=O)NCc1ccc(-c2scnc2C)cc1)C(C)(C)C [Example 139, (2S,4R)-1-[(2S)-2-(2-{4-[4-(4-{3-[4-cyano-3-(trifluoromethyl)phenyl]-5,5-dimethyl-4-oxo-2-sulfanylideneimidazolidin-1-yl}phenyl)-2-methoxyphenoxy]butoxy}acetamido)-3,3-dimethylbutanoyl]-4-hydroxy-N-{[4-(4-methyl-1,3-thiazol-5-yl)phenyl]methyl}pyrrolidine-2-carboxamide] | > 71 | DC50 [4]: < 50 nM
7 | < 50 | 51 to 70 | Cc1ncsc1-c1ccc([C@H](C)NC(=O)C2C[C@@H](O)CN2C(=O)[C@@H](NC(=O)CN2C[C@@H]3C[C@H]2CN3CCCc2ccc(C(=O)N[C@H]3C(C)(C)[C@H](Oc4ccc(C#N)c(Cl)c4)C3(C)C)cc2)C(C)(C)C)cc1 (stereo partly drawn) [Example 801, (2S,4R)-1-((S)-2-(2-((1S,4S)-5-(3-(4-(((1r,3S)-3-(3-chloro-4-cyanophenoxy)-2,2,4,4-tetramethylcyclobutyl)carbamoyl)phenyl)propyl)-2,5-diazabicyclo[2.2.1]heptan-2-yl)acetamido)-3,3-dimethylbutanoyl)-4-hydroxy-N-((S)-1-(4-(4-methylthiazol-5-yl)phenyl)ethyl)pyrrolidine-2-carboxamide] |  | 
8 |  |  | CC(C)(C)[C@H](NC(=O)COCCCCOc1ccc(-c2ccc(N3C(=S)N(c4ccc(C#N)c(Cl)c4)C(=O)C3(C)C)cc2)cc1)C(=O)N1C[C@H](O)C[C@H]1C(=O)NCc1ccc(-c2cnco2)cc1 [Example 94, (2S,4R)-1-[(2S)-2-{2-[4-(4-{4-[3-(3-chloro-4-cyanophenyl)-5,5-dimethyl-4-oxo-2-sulfanylideneimidazolidin-1-yl]phenyl}phenoxy)butoxy]acetamido}-3,3-dimethylbutanoyl]-4-hydroxy-N-{[4-(1,3-oxazol-5-yl)phenyl]methyl}pyrrolidine-2-carboxamide] | > 71 | DC50 [4]: < 50 nM
9 |  |  | Cc1ncsc1-c1ccc(CNC(=O)[C@@H]2C[C@@H](O)CN2C(=O)[C@@H](NC(=O)COCCCOCc2ccc(-c3ccc(N4C(=S)N(c5ccc(C#N)c(C(F)(F)F)c5)C(=O)C4(C)C)cc3)cc2)C(C)(C)C)cc1 [Example 128, (2S,4R)-1-[(2S)-2-[2-(3-{[4-(4-{3-[4-cyano-3-(trifluoromethyl)phenyl]-5,5-dimethyl-4-oxo-2-sulfanylideneimidazolidin-1-yl}phenyl)phen-yl]methoxy}propoxy)acetamido]-3,3-dimethylbutanoyl]-4-hydroxy-N-{[4-(4-methyl-1,3-thiazol-5-yl)phenyl]methyl}pyrrolidine-2-carboxamide] | 51 to 70 | DC50 [4]: < 50 nM
10 | < 50 | > 71 | Cc1ncsc1-c1ccc([C@H](C)NC(=O)[C@@H]2CC(O)CN2C(=O)[C@H](C(C)C)N2Cc3cc(OCCN4CCN(c5ccc(C(=O)N[C@H]6C(C)(C)[C@H](Oc7ccc(C#N)c(Cl)c7)C6(C)C)cn5)CC4)ccc3C2=O)cc1 (stereo partly drawn) [Example 848, N-((1r,3r)-3-(3-chloro-4-cyanophenoxy)-2,2,4,4-tetramethylcyclobutyl)-6-(4-(2-((2-((S)-1-((2S, 4R)-4-hydroxy-2-(((S)-1-(4-(4-methylthiazol-5-yl)phenyl)ethyl)carbamoyl)pyrrolidin-1-yl)-3-methyl-1-oxobutan-2-yl)-1-oxoisoindolin-5-yl)oxy)ethyl)piperazin-1-yl)nicotinamide] |  | 
11 |  |  | CC(C)(C)[C@H](NC(=O)COCCCCOc1ccc(-c2ccc(N3C(=S)N(c4cnc(C#N)c(C(F)(F)F)c4)C(=O)C3(C)C)cc2)cc1)C(=O)N1C[C@H](O)C[C@H]1C(=O)NCc1ccc(C#N)cc1 [Example 571] |  | DC50 (VCaP cells; Table 35; read-out: VCaP DC50): < 50 nM; Dmax (VCaP, VCaP cells; Table 35; read-out: VCaP Dmax (%)): > 71%
12 |  |  | Cc1ncsc1-c1ccc([C@H](C)NC(=O)[C@@H]2C[C@@H](O)CN2C(=O)C(NC(=O)COCCCOCC[C@@H](O)CCOc2ccc(N3C(=S)N(c4ccc(C#N)c(C(F)(F)F)c4)C(=O)C3(C)C)cc2)C(C)(C)C)cc1 (some centres unmarked) [Example 613, 1-(2-(2-(3-((5-(4-(3-(4-cyano-3-(trifluoromethyl)phenyl)-5,5-dimethyl-4-oxo-2-thioxoimidazolidin-1-yl)phenoxy)-3-hydroxypentyl)oxy)pro-poxy)acetamido)-3,3-dimethylbutanoyl)-4-hydroxy-N-(1-(4-(4-methylthiazol-5-yl)phenyl)ethyl)pyrrolidine-2-carboxamide] | 26 to 50 | DC50 [1]: > 501 nM
13 |  |  | Cc1ncoc1-c1ccc(CNC(=O)[C@@H]2C[C@@H](O)CN2C(=O)[C@@H](NC(=O)COCCCCCOc2ccc(C(=O)NC3C(C)(C)C(Oc4ccc(C#N)c(Cl)c4)C3(C)C)cc2)C(C)(C)C)cc1 (stereo partly drawn) [Example 152, (2S,4R)-1-[(2S)-3,3-dimethyl-2-(2-{[5-(4-{[trans-3-(3-chloro-4-cyanophenoxy)-2,2,4,4-tetramethylcyclobutyl]carbamoyl}phen-oxy)pentyl]oxy}acetamido)butanoyl]-4-hydroxy-N-{[4-(4-methyl-1,3-oxazol-5-yl)phenyl]methyl}pyrrolidine-2-carboxamide] |  | Dmax (VCaP, highest percentage of Androgen Receptor degradation observed, VCaP cells (Table 32); read-out: VCaP Dmax (%)): > 71%; DC50 (concentration that caused 50% Androgen Receptor degradation, VCaP cells (Table 32); read-out: VCaP DC50): < 50 nM
